Our source for the Emax and EC50 values is patent US20260200926A1, “TREM2 MODULATORS” (Muna Therapeutics ApS, priority 2022, published 2026).

What is called Emax is the size of the effect at its maximum, as opposed to the concentration needed. In general, EC50 refers to the concentration that produces a half-maximal response.

In the test the target is T1, Human TREM2 (Homo sapiens, UniProt Q9NZC2).
T1 construct: expressed in transfected cells
Description: Human TREM2 activity: cellular phosphorylation of Syk (AlphaLISA SureFire Ultra p-SYK) in HEK293/DAP12+TREM2 stable cell line. It is filed as cell-based. The settings on record: for Emax: HEK293, maximal response relative to reference agonist example 1B (remaining examples), read-out: Emax; for EC50: phospho-Syk AlphaLISA signal, HEK293/DAP12+TREM2 cells, concentration giving 50% of maximal response, read-out: EC50. From the text:
Human TREM2, in vitro Measurement of Triggering Receptor Expressed on Myeloid Cells 2 activity using cellular phosphorylation of Spleen Tyrosine Kinase (“Syk”) Assay
HEK-293 cells were co-transfected with separate plasmids encoding TREM2 and DAP12 to generate a stable cell line. After antibiotic selection, functional clone pool analysis and two successive limiting dilutions, the final clone “HEK293/DAP12+TREM2” underwent a qPCR analysis and a pharmacological validation.
TREM2 signaling through DAP12 was monitored in the HEK293/DAP12+TREM2 stable cell line by measuring the phosphorylation levels of the Syk kinase using the commercially available AlphaLISA SureFire Ultra p-SYK (Tyr525/526) Assay Kit (PerkinElmer #ALSU-PSYK), based on the Perkin Elmer AlphaScreen/AlphaLISA technology.
Compounds are transferred to the test plate and tested in full dose response, 8 concentrations in quadruplicate data points. Compound serial dilutions were performed at Cybi-Felix instrument in 100% DMSO and the dose response curves were assembled in automated fashion in 384MPT at Hamilton STARlet instrument. All the stock solutions were prepared at 20 mM in 100% DMSO. For compounds testing, the starting concentration was 100 μM, dilution steps 1:6. […] Finally, a 384MPT reformatted for all compounds at 8 concentrations, quadruplicates, was used as “mother to child” process with a CyBi®-Well dispenser in which 1 μL of each compound was moved into a destination plate pre-filled with 65.6 μL of EMEM cell culture medium (BIOWHITTAKER_cat.BE12-125F), thus obtaining 3× concentrated compounds working solution. In columns 1-2 and 23-24 the control wells were added. In particular, dose response curves of a reference control agonist were included in column 1 and 24 as reference control agonist (Reference control agonists used include Human TREM2 polyclonal Antibody AF1828: R&D Systems; Human TREM2 monoclonal Antibody MAB1828: R&D Systems). The dose response curves were tested starting at 30 μM, dilution step 1:6. Both “source” compound plate and “destination” compound plate were barcoded and a relationship between the two plates was thus generated.
HEK293/DAP12+TREM2 cells were cultured in EMEM medium supplemented with IX Penicillin/Streptomycin (BIOWHITTAKER_cat.DE17-602E), ULTRAGLUTAMINE I 200 mM, 10% Fetal Bovine Serum plus antibiotics referred to as “HEK293 Culture Medium”. The day before the experiment, cells were detached by gentle wash with DPBS, followed by 5 min incubation at 37° C. with Trypsin solution. Cells were then diluted in HEK293 Culture Medium without antibiotics, counted and seeded into 384-well poly-D-Lysine coated microplates black/clear bottom (GREINER 781946) at a density of 10,000 cells/well in 25 μL/well by the use of a MATRIX WellMate dispenser. Plates were placed into a humidified cell culture incubator at 37° C. with 5% CO2 until the experimental day. 20-24 hours after seeding mature medium was removed and replaced with 10 μL/well of EMEM cell medium supplemented with 0.1% Pluronic F-68 non-ionic surfactant (Thermofisher, 24040032), referred to as “Assay Buffer”, using the CyBi®-Well instrument. Then 5 μL/well of Assay Buffer containing 3× concentrated test compounds or the reference control agonist (in 0.5% final DMSO concentration) were added to the cells with the CyBi®-Well instrument. Cell plates were incubated for 30 min into a humidified cell culture incubator at 37° C. with 5% CO2·, then the medium was removed by manually discard. 20 μL/well of lysis buffer were dispensed using the CyBi®-Well instrument and plates were incubated for 10 min at room temperature on a plate shaker (350 rpm). Then, 10 μL/well of lysate were transferred to the Alpha plates. The CyBi®-Well instrument was used to dispense 5 μL/well of AlphaLISA Acceptor Bead Solution in IX Immunoassay buffer (Perkin Elmer AL000F). Then the plates were sealed with Heat sealing foil, shaked for 2 minutes (350 rpm) and incubated for 1 hour at room temperature.
On the technique in general: Alpha assays give light when donor and acceptor beads are brought close together.

T1 sequence (Q9NZC2 19-230): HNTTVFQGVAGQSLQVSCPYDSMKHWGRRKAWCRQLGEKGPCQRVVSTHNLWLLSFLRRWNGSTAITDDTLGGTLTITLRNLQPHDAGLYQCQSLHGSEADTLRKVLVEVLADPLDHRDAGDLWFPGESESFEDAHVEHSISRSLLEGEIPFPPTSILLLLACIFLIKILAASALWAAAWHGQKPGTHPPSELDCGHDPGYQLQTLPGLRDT
T1 sequence (O43914 22-113 partner): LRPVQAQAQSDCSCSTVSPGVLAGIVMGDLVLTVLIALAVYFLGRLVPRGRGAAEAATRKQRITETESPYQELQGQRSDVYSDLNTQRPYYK

With `Cc1nc2c(-c3ccc(F)cc3F)nc(N3CCO[C@@H](c4cnn(C)c4)C3)cc2c(=O)n1C` (single isomer, unassigned) [Example 129A], the Emax fell in the range of 75 to 110% and the EC50 is 10 to 100 nM.
On the same counts, the results for `Cc1nc2c(-c3ccc(Cl)cc3F)nc(N3C[C@H](c4cnn(C)c4)OC(F)(F)C3)nc2c(=O)n1C` (single isomer, unassigned) [Example 149B] are < 75% and 10 to 100 nM.
With `Cc1nc2c(-c3ccc(C(F)(F)F)cc3C#N)nc(N3C[C@@H](c4cnn(C5CC5)c4)O[C@@H](C)C3)cc2c(=O)n1C` (single isomer, unassigned) [Example 202A], the Emax is < 75% and the half-maximal effective concentration (EC50) is > 1000 nM.
Consider `Cc1nc2c(-c3ccc(Cl)cc3F)nc([C@@H]3C[C@H](c4cnn(C)c4)OC(C)(C)C3)nc2c(=O)n1C` (single isomer, unassigned) [Example 111B], for which the Emax was < 75% and the half-maximal effective concentration (EC50) lay in the range of 100 to 1000 nM.
Taken in the same sequence, the figures for `Cc1nc2c(-c3ccc(Cl)cc3F)nc(N3C[C@H](c4cnn(C)c4)OC(C)(C)C3)nc2c(=O)n1C` (single isomer, unassigned) [Example 89B] were 75 to 110% and 10 to 100 nM.
Taken in the same sequence, the figures for `Cc1nc2c(-c3ccc(C(F)(F)F)cc3F)nc(N3CCO[C@H](c4cnn(C5CC5)c4)C3)nc2c(=O)n1C` (single isomer, unassigned) [Example 20A] were 75 to 110% and 10 to 100 nM.
For `Cc1nc2c(-c3ccc(F)cc3F)nc(N3C[C@@H](c4cnn(C)c4)OC(F)(F)C3)nc2c(=O)n1C` (single isomer, unassigned) [Example 156A], the Emax was in the range of 75 to 110% and the EC50 fell in the range of 1 to 10 nM.
With `Cc1nc2c(-c3ccc(Cl)cc3C#N)nc(N3CC(C)OC(c4cnn(C5CC5)c4)C3)cc2c(=O)n1C` (centres unmarked) [Example 198, 5-chloro-2-(6-(2-(1-cyclopropyl-1H-pyrazol-4-yl)-6-methylmorpholino)-2,3-dimethyl-4-oxo-3,4-dihydropyrido[3,4-d]pyrimidin-8-yl)benzonitrile], the maximal effect (Emax) is < 75% and the EC50 is > 1000 nM.
For `COCCn1cc(C2CN(c3nc(-c4ccc(Cl)cc4F)c4nc(C)n(C)c(=O)c4n3)CCO2)cn1` (centres unmarked) [Example 69, 8-(4-chloro-2-fluorophenyl)-6-(2-(1-(2-methoxyethyl)-1H-pyrazol-4-yl)morpholino)-2,3-dimethylpyrimido[5,4-d]pyrimidin-4 (3H)-one], the Emax was < 75% and the EC50 lay within 10 to 100 nM.
On the same counts, the results for `Cc1nc2c(-c3cc(F)c(F)cc3F)nc(N3C[C@@H](c4cnn(C)c4)OC4(CCC4)C3)cc2c(=O)n1C` (single isomer, unassigned) [Example 152A] are 75 to 110% and 100 to 1000 nM.
Regarding `Cc1cc([C@@H]2CN(c3nc(-c4ccc(F)cc4F)c4nc(C(F)(F)F)n(C)c(=O)c4n3)CCO2)ccn1` (single isomer, unassigned) [Example 154A], the Emax was 75 to 110% and the EC50 is < 1 nM.
As to `Cc1nc2c(-c3cc(F)c(F)cc3F)nc([C@@H]3CCO[C@H](c4cnn(C5CC5)c4)C3)nc2c(=O)n1C` (single isomer, unassigned) [Example 97A], the Emax lay within 75 to 110% and the EC50 fell in the range of 10 to 100 nM.
As to `Cc1cc([C@@H]2CN(c3nc(-c4ccc(C(F)(F)F)nc4)c4nc(C)n(C)c(=O)c4n3)CC(C)(C)O2)ccn1` (single isomer, unassigned) [Example 164A], the Emax was in the range of 75 to 110% and the EC50 was 10 to 100 nM.
On the same counts, the results for `Cc1cc([C@@H]2CN(c3nc(-c4ccc(F)cc4F)c4nc(C)n(C)c(=O)c4n3)CC(F)(F)O2)ccn1` (single isomer, unassigned) [Example 169A] are 75 to 110% and < 1 nM.
`C[C@H]1CN(c2nc(-c3ccc(F)cc3F)c3nc(C(F)(F)F)n(C)c(=O)c3n2)C[C@@H](c2cnn(C3CC3)c2)O1` (single isomer, unassigned) [Example 183A]: the maximal response (Emax) is 75 to 110% and the EC50 is 1 to 10 nM.
Taken in the same sequence, the figures for `Cc1nc2c(-c3ccc(Cl)cc3F)nc(N3CCOC4(CCN(C)CC4)C3)nc2c(=O)n1C` [Example 56, 8-(4-chloro-2-fluorophenyl)-2,3-dimethyl-6-(9-methyl-1-oxa-4,9-diazaspiro[5.5]undecan-4-yl)pyrimido[5,4-d]pyrimidin-4(3H)-one] were < 75% and > 1000 nM.
Taken in the same sequence, the figures for `Cc1nc2c(-c3cc(F)c(F)cc3F)nc(N3CCOC(c4cnn(C)c4)C3)nc2c(=O)n1C` (centres unmarked) [Example 7, 2,3-dimethyl-6-(2-(1-methyl-1H-pyrazol-4-yl)morpholino)-8-(2,4,5-trifluorophenyl)pyrimido[5,4-d]pyrimidin-4(3H)-one] were < 75% and 100 to 1000 nM.
On the same counts, the results for `Cc1nc2c(-c3ccc(Cl)cc3F)cc(N3CCOC(c4cnn(C)c4)C3)cc2c(=O)n1C` (centres unmarked) [Example 106, 8-(4-chloro-2-fluorophenyl)-2,3-dimethyl-6-(2-(1-methyl-1H-pyrazol-4-yl)morpholino)quinazolin-4 (3H)-one] are < 75% and 100 to 1000 nM.
With `C[C@@H]1CN(c2cc3c(=O)n(C)c(C(F)(F)F)nc3c(-c3ccc(F)cc3F)n2)C[C@H](c2cnn(C3CC3)c2)O1` (single isomer, unassigned) [Example 193B], the maximum response (Emax) is < 75% and the half-maximal effective concentration (EC50) is 10 to 100 nM.
`Cc1nc2c(-c3ccc(Cl)cc3F)nc(N3CCOC(c4nccs4)C3)nc2c(=O)n1C` (centres unmarked) [Example 48, 8-(4-chloro-2-fluorophenyl)-2,3-dimethyl-6-(2-(thiazol-2-yl)morpholino)pyrimido[5,4-d]pyrimidin-4(3H)-one]: the Emax was < 75% and the concentration for a half-maximal effect (EC50) is 10 to 100 nM.
Taken in the same sequence, the figures for `Cc1nc2c(-c3ccc(Cl)cc3F)nc(N3CCN(CC(F)F)C(c4cnn(C)c4)C3)nc2c(=O)n1C` (centres unmarked) [Example 32, 8-(4-chloro-2-fluorophenyl)-6-(4-(2,2-difluoroethyl)-3-(1-methyl-1H-pyrazol-4-yl)piperazin-1-yl)-2,3-dimethylpyrimido[5,4-d]pyrimidin-4(3H)-one] were < 75% and 10 to 100 nM.
With `Cc1nc2c(-c3ccc(Cl)cc3F)nc([C@H]3C[C@@H](c4cnn(C)c4)OC(C)(C)C3)nc2c(=O)n1C` (single isomer, unassigned) [Example 111A], the Emax fell in the range of 75 to 110% and the EC50 fell in the range of 10 to 100 nM.
Take `Cc1nc2c(-c3ccc(F)cc3F)nc(N3C[C@H](c4cnn(C)c4)OC(C)(C)C3)nc2c(=O)n1C` (single isomer, unassigned) [Example 121B]: the Emax was < 75% and the EC50 is > 1000 nM.
Consider `Cc1nc2c(-c3ccc(C(F)(F)F)nc3)nc(N3C[C@H](c4cnn(C)c4)OC(C)(C)C3)nc2c(=O)n1C` (single isomer, unassigned) [Example 102B], for which the Emax was < 75% and the EC50 is > 1000 nM.
Consider `Cc1cc([C@H]2CN(c3nc(-c4ccc(C(F)(F)F)cc4F)c4nc(C)n(C)c(=O)c4n3)CC(C)(C)O2)ccn1` (single isomer, unassigned) [Example 124B], for which the maximal response (Emax) is 75 to 110% and the EC50 is 1 to 10 nM.
